Where a name gives a salt, the structure may show the parent alone.
Assays:
[1] = biological target: glucosyl transferase; assay: Assay for the inhibition of glucosyl transferase activity (14C-sucrose incorporation into glucan); assay type: biochemical; settings: 50% inhibition of glucosyl transferase activity; 0.05M sodium acetate buffer, pH 5.5, 37° C.; read-out: 50% Inhibition Concentration
Procedure: An assay for the inhibition of glucosyl transferase activity was developed wherein the enzyme was incubated for 10 minutes with varying concentrations of the surfactant in 0.05M sodium acetate buffer, pH 5.5 at 37° C., with agitation. The reaction was then started by adding the remainder of the assay mixture (to a final volume of 450 mcl) consisting of: 2.5 μCi uniformly-labelled 14C -sucrose, 1% unlabelled sucrose, sodium fluoride and Dextran T10 in acetate buffer. Samples were removed at timed intervals, spotted to filters and the filters were treated with methanol. Radioactivity incorporated into glucan was plotted versus time as compared to a control preparation. By this procedure the concentration of test reagent necessary to achieve 50% inhibition of glucosyl transferase activity was determined.

[2] = test system: Streptococcus sanguis G9B, S. mutans Ingbritt and Actinomyces viscosus T14 V; assay: Adherence assay: inhibition of initial adherence of bacteria to saliva-coated hydroxyapatite beads; assay type: cell-based; settings: 50% inhibition of bacterial adherence to saliva-coated hydroxyapatite (HA) beads, determined graphically; surfactant dissolved in water; 37° C.; read-out: 50% Inhibition Concentration
From the text: S. sanguis G9B adheres well to saliva-coated hydroxyapatite. This attachment, in vivo, occurs within minutes. As plaque matures, the percentage of S. sanguis decreases, but its actual numbers remain high. In vivo and in vitro studies have shown S. sanguis to interact with other oral bacteria including S. mutans and Actinomyces viscosus. S. mutans has also been implicated as a cause of dental caries. Stock cultures were kept both lyophillized and frozen in Brain Heart Infusion Broth (BHI, Difco Laboratories) at -70° C.; the latter being used to inoculate starter cultures. After overnight incubation at 37° C, a 0.5% inoculum was used to inoculate 100 ml of BHI which was subsequently incubated 20 hours at 37° C. The cells were radioactivately labeled by adding tritiated thymidine (methyl-3H) to a final specific activity of 2 μCi/ml. After incubation, the cells were harvested by centrifugation (16,320× g, 15 minutes, 4° C.), washed three times with buffered KCl (2 mM potassium phosphate buffer, 1 mM CaCl2, and 5 mM KCl, pH 6.0) (Ref. 8), and resuspended to a turbidity of 300 Klett units (Klett-Summerson colorimeter; blue, #47 filter). This bacterial stock cell suspension was then diluted with buffered KCl to produce a series of cell suspensions ranging from 1.6 to 300 Klett units. Duplicate 50 ul aliquots of each cell suspension were counted in Aquasol-2 to determine their specific activities.
A. viscosus T14 V was grown for 48 hours at 37° C. under anaerobic conditions in tryptic soy broth (TSB) containing glucose.
Whole, paraffin-stimulated saliva was collected into ice-chilled tubes and clarified by centrifugation ([…], 15 minutes, 4° C.). The supernatant fluids were removed and aliquots were stored frozen at -20° C. until used. A pool of saliva from several individuals was used routinely; and was collected after a 10 hour fast with no food or oral hygiene on the morning of collection.
Spheroidal hydroxyapatite beads (manufactured by BDH Chemicals, Poole, England and obtained from Gallard-Schlessinger Co., Carle Place, NY) were distributed into a 12×75 mm polystyrene test tube (Walter Sarstedt, Inc., Princeton, N.J.) and mixed with either 1 ml of saliva or buffered KCl for 1.5 hours at ambient temperature with rotation (20 rpm). Each tube contained 40±2 mg of HA beads, distributed using a calibrated stainless steel ladle.
The cells were radioactively labelled by addition of 1.5 μCi/ml methyl-^3 H thymidine to the cell suspension media. The hydroxyapatite (HA) beads were coated with either a surfactant or a control or saliva and rotated for 30 minutes at ambient temperature. The excess agent or saliva was removed by washing with buffer. Radioactively-labelled cells suspended in either buffer or varying concentrations of the surfactant were added to the beads. The beads and cells were incubated at 37° C., 10 minutes for the streptococcal strains and 15 minutes for the actinomycete, after which the beads were washed to remove the unbound cells and the radioactivity bound to them was determined by scintillation counting. S. mutans Ingbritt was also assayed for sucrose-mediated adherence by addition of 1% sucrose to the cells and surfactant mixture. The concentration to effect 50% inhibition of bacterial adherence to the HA beads was determined graphically.
Several surfactant agents according to the invention dissolved in water were employed in the assay.

Compound	IC50 [1] [µM]	IC50 [2] [µM]
CCCCCCCCCCCCCCCC(=O)N(C)CCS(=O)(=O)O [Surfactant 1, N--methyl-N--palmitoyltaurine, sodium salt]	1000	250
CCCCCCCC/C=C\CCCCCCCC(=O)N(C)CCS(=O)(=O)O [Surfactant 2, N--methyl-N--oleolytaurine sodium salt]	1000	350
Cocamidopropylhydroxysultaine [Surfactant 4]		15000
Cocamidopropylhydroxysultaine, potassium salt [Surfactant 5]		25000
Cocoylisethionate, sodium salt [Surfactant 6]		100
N--methyl-N--cocoyltaurine sodium salt [Surfactant 3]	1000	300

Source: patent US4828849A, “Surfactant inhibition of dental plaque” (Warner-Lambert Company, priority 1988, dated 1989)
